Experimental data: patent publication US8183262B2, “Pyridine derivatives as mGluR2 antagonists” (Hoffmann-La Roche Inc., priority 2007, dated 2012)

Columns and labels:
rat mGlu2 receptor = molecular target: T1, rat mGlu2 receptor (Rattus norvegicus, UniProt P31421); experiment: [3H]-LY354740 binding on mGlu2 transfected CHO cell membranes; settings: inhibition of 10 nM [3H]-LY354740 binding, membranes of CHO cells transfected with rat mGlu2, room temperature, 1 hour
T1 construct: expressed in transfected cells; membranes prepared
Outline: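 Membranes from CHO cells stably expressing rat mGlu2 (25 μg protein/ml) incubated 1 hour at room temperature with 10 nM [3H]-LY354740 and test compound in 50 mM Tris-HCl, 2 mM MgCl2, pH 7.4. Non-specific binding defined with 10 μM DCG IV; bound radioactivity counted after filtration. IC50 from four-parameter logistic fit.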

T1 sequence (P31421 19-872): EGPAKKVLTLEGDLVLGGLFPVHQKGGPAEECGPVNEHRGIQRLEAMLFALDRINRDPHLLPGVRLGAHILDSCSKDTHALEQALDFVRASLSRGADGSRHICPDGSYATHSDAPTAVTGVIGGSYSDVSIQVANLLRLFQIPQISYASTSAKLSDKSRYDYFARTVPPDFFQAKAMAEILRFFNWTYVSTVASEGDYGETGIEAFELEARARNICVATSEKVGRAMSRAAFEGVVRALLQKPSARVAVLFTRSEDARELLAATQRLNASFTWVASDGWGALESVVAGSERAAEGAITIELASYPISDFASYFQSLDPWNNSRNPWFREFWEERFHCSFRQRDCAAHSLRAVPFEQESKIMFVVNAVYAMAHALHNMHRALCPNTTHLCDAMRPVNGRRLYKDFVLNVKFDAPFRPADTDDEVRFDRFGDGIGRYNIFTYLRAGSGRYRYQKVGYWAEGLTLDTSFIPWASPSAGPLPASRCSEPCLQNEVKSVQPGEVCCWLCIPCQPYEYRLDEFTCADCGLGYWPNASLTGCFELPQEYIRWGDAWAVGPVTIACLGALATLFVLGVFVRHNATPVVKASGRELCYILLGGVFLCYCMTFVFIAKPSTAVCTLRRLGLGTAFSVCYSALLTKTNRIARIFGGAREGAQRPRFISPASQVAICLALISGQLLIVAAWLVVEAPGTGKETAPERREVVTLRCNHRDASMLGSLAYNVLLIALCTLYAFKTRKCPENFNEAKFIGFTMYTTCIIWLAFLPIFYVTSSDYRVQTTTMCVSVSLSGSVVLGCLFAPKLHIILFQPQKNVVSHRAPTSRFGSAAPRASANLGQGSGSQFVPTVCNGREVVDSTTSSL

| Ki (rat mGlu2 receptor) [nM] | melting point | Compound |
| --- | --- | --- |
| 3 | 215 °C | Cc1cc(-c2ccc(C(F)(F)F)cc2)cc(-c2cccc(-c3ccc(S(N)(=O)=O)s3)c2)n1 [Example 271, 5-{3-[6-Methyl-4-(4-trifluoromethyl-phenyl)-pyridin-2-yl]-phenyl}-thiophene-2-sulfonic acid amide] |
| 55 | 216 °C | CCOc1cc(-c2cc(C(F)(F)F)nc(-c3nc(-c4ccc(N)nc4)no3)n2)ccc1C(F)(F)F [Example 90, 5-{5-[4-(3-Ethoxy-4-trifluoromethyl-phenyl)-6-trifluoromethyl-pyrimidin-2-yl]-[1,2,4]oxadiazol-3-yl}-pyridin-2-ylamine] |
| 28 | 250 °C | Nc1ncc(-c2cccc(-c3nc(-c4ccc(C(F)(F)F)c(OCC(F)(F)F)c4)cc(C(F)(F)F)n3)c2)cn1 [Example 138, 5-(3-{4-[3-(2,2,2-Trifluoro-ethoxy)-4-trifluoromethyl-phenyl]-6-trifluoromethyl-pyrimidin-2-yl}-phenyl)-pyrimidin-2-ylamine] |
| 13 | 89 to 106 °C | Cc1cc(-c2ccc(C(F)(F)F)cc2)cc(-c2cccc(-c3cccnc3)c2)n1 [Example 61, 2-Methyl-6-(3-pyridin-3-yl-phenyl)-4-(4-trifluoromethyl-phenyl)-pyridine] |
| 29 | 100 to 104 °C | FC(F)(F)c1ccc(-c2cc(-c3cccc(-c4cccnc4)c3)nc(C3CC3)c2)cc1 [Example 63, 2-Cyclopropyl-6-(3-pyridin-3-yl-phenyl)-4-(4-trifluoromethyl-phenyl)-pyridine] |
| 72 | 162 °C | FC(F)(F)c1ccc(-c2cc(C(F)(F)F)nc(-n3ccnc3)n2)cc1 [Example 3, 2-Imidazol-1-yl-4-trifluoromethyl-6-(4-trifluoromethyl-phenyl)-pyrimidine] |
| 8.4 | 200 °C | CC(C)(C)NS(=O)(=O)c1cccc(-c2cccc(-c3nc(-c4ccc(C(F)(F)F)cc4)cc(C(F)(F)F)n3)c2)c1 [Example 155, 3′-[4-Trifluoromethyl-6-(4-trifluoromethyl-phenyl)-pyrimidin-2-yl]-biphenyl-3-sulfonic acid tert-butylamide] |
| 16 | 223.5 °C | CCOc1cc(-c2cc(C(F)(F)F)nc(-c3ccnc(-c4cccc(S(N)(=O)=O)c4)c3)n2)ccc1C(F)(F)F [Example 452, 3-{4-[4-(3-Ethoxy-4-trifluoromethyl-phenyl)-6-trifluoromethyl-pyrimidin-2-yl]-pyridin-2-yl}-benzenesulfonamide] |
| 13 | 187 °C (dec.) | Cc1nc(-c2cn(-c3cc(C(F)(F)F)cc(-c4ccc(C(F)(F)F)cc4)n3)cn2)sc1S(N)(=O)=O [Example 294, 4-Methyl-2-{1-[4-trifluoromethyl-6-(4-trifluoromethyl-phenyl)-pyridin-2-yl]-1H-imidazol-4-yl}-thiazole-5-sulfonic acid amide] |
| 39 | 144 °C | CSc1cccc(-c2cccc(-c3cc(-c4ccc(C(F)(F)F)cc4)cc(C)n3)n2)c1 [Example 357, 6-Methyl-6′-(3-methylsulfanyl-phenyl)-4-(4-trifluoromethyl-phenyl)-[2,2′]bipyridinyl] |
| 38 | 164 °C | Cc1cc(-c2ccc(C(F)(F)F)cc2)cc(-c2ccnc(-c3cccc([N+](=O)[O-])c3)c2)n1 [Example 306, 6-Methyl-2′-(3-nitro-phenyl)-4-(4-trifluoromethyl-phenyl)-[2,4′]bipyridinyl] |
| 19 | 215 to 227 °C | Cc1cc(-c2ccc(C(F)(F)F)cc2)cc(-c2cccc(-c3ccc(S(N)(=O)=O)cc3)n2)n1 [Example 73, 4-[6′-Methyl-4′-(4-trifluoromethyl-phenyl)-[2,2′]bipyridinyl-6-yl]-benzenesulfonamide] |
| 28 | 273 °C | NS(=O)(=O)c1cccc(-c2nc(-c3nc(-c4ccc(Cl)cc4)cc(C(F)(F)F)n3)no2)c1 [Example 2, 3-{3-[4-(4-Chloro-phenyl)-6-trifluoromethyl-pyrimidin-2-yl]-[1,2,4]oxadiazol-5-yl}-benzenesulfonamide] |
| 47 | 200.5 °C | FC(F)(F)c1ccc(-c2cc(C(F)(F)F)nc(-n3cnc(-c4cccnc4)c3)n2)cc1 [Example 5, 2-(4-Pyridin-3-yl-imidazol-1-yl)-4-trifluoromethyl-6-(4-trifluoromethyl-phenyl)-pyrimidine] |
| 96 | 158 to 160 °C | Cc1cc(-c2ccc(C(F)(F)F)cc2)cc(-n2ccnc2)n1 [Example 55, 2-Imidazol-1-yl-6-methyl-4-(4-trifluoromethyl-phenyl)-pyridine] |
| 34 | 126 to 132 °C | Cc1cn(-c2cccc(-c3cc(-c4ccc(C(F)(F)F)cc4)cc(C)n3)c2)cn1 [Example 227, 2-Methyl-6-[3-(4-methyl-imidazol-1-yl)-phenyl]-4-(4-trifluoromethyl-phenyl)-pyridine] |
| 3 | 198 °C | Cc1cc(-c2ccc(C(F)(F)F)cc2)cc(-c2cccc(-c3cccc(S(=O)(=O)NCC(F)(F)F)c3)n2)n1 [Example 445, 3-[6′-Methyl-4′-(4-trifluoromethyl-phenyl)-[2,2′]bipyridinyl-6-yl]-N-(2,2,2-trifluoro-ethyl)-benzenesulfonamide] |
| 4 | 196 °C | Cc1cc(-c2ccc(C(F)(F)F)cc2)cc(-c2ccnc(-c3cccc(NS(C)(=O)=O)c3)c2)n1 [Example 318, N-{3-[6-Methyl-4-(4-trifluoromethyl-phenyl)-[2,4′]bipyridinyl-2′-yl]-phenyl}-methanesulfonamide] |
| 18 | > 250 °C | NS(=O)(=O)c1cnc(-c2cn(-c3cc(-c4ccc(C(F)(F)F)cc4)cc(C(F)(F)F)n3)cn2)s1 [Example 313, 2-{1-[6-Trifluoromethyl-4-(4-trifluoromethyl-phenyl)-pyridin-2-yl]-1H-imidazol-4-yl}-thiazole-5-sulfonic acid amide] |
| 100 | 223.5 °C | Nc1cc(-c2noc(-c3nc(-c4ccc(Cl)cc4)cc(C(F)(F)F)n3)n2)ccn1 [Example 8, 4-{5-[4-(4-Chloro-phenyl)-6-trifluoromethyl-pyrimidin-2-yl]-[1,2,4]oxadiazol-3-yl}-pyridin-2-ylamine] |
| 5 | 187 °C | NS(=O)(=O)c1cccc(-c2cccc(-c3cc(-c4ccc(C(F)(F)F)cc4)cc(C(F)(F)F)n3)c2)c1 [Example 244, 3′-[6-Trifluoromethyl-4-(4-trifluoromethyl-phenyl)-pyridin-2-yl]-biphenyl-3-sulfonic acid amide] |
| 7 | 174 °C | NS(=O)(=O)Nc1cccc(-c2cccc(-c3nc(-c4ccc(C(F)(F)F)cc4)cc(C(F)(F)F)n3)c2)c1 [Example 221, N-{3′-[4-Trifluoromethyl-6-(4-trifluoromethyl-phenyl)-pyrimidin-2-yl]-biphenyl-3-yl}-sulfamide] |
| 39.5 | 153.5 °C | FC(F)(F)c1ccc(-c2cc(C(F)(F)F)nc(-c3ccncc3)n2)cc1 [Example 39, 2-Pyridin-4-yl-4-trifluoromethyl-6-(4-trifluoromethyl-phenyl)-pyrimidine] |
| 16 | 209 °C | Cc1cc(-c2ccc(C(F)(F)F)cc2)nc(-c2ccnc(-c3ccc(S(=O)(=O)NC(C)(C)C)s3)c2)c1 [Example 320, 5-[4-Methyl-6-(4-trifluoromethyl-phenyl)-[2,4′]bipyridinyl-2′-yl]-thiophene-2-sulfonic acid tert-butylamide] |
| 9 | 196 °C (dec.) | Nc1ccc(-c2cn(-c3cc(C(F)(F)F)cc(-c4ccc(Cl)cc4)n3)cn2)cn1 [Example 56, 5-{1-[6-(4-Chloro-phenyl)-4-trifluoromethyl-pyridin-2-yl]-1H-imidazol-4-yl}-pyridin-2-ylamine] |
| 80 | 156 °C | Cc1cc(-c2ccc(C(F)(F)F)cc2)nc(-c2cccc(-c3ccc(S(=O)(=O)NC(C)(C)C)s3)c2)c1 [Example 272, 5-{3-[4-Methyl-6-(4-trifluoromethyl-phenyl)-pyridin-2-yl]-phenyl}-thiophene-2-sulfonic acid tert-butylamide] |
| 3 | 208 °C | NS(=O)(=O)c1cccc(-c2cccc(-c3nc(-c4ccc(F)cc4)cc(C(F)(F)F)n3)c2)c1 [Example 394, 3′-[4-(4-Fluoro-phenyl)-6-trifluoromethyl-pyrimidin-2-yl]-biphenyl-3-sulfonic acid amide] |
| 32 | 232 °C | Nc1ccc(-c2cn(-c3nc(-c4ccc(F)c(F)c4)cc(C(F)(F)F)n3)cn2)cn1 [Example 384, 5-{1-[4-(3,4-Difluoro-phenyl)-6-trifluoromethyl-pyrimidin-2-yl]-1H-imidazol-4-yl}-pyridin-2-ylamine] |
